# Laboratory results: PMC3389674, “Comparison of Soluble Guanylate Cyclase Stimulators and Activators in Models of Cardiovascular Disease Associated with Oxidative Stress” (Frontiers in Pharmacology, 2012)
# Like-named read-outs stand apart in the source and are kept apart here.
# Experiments:
# Sprague Dawley rats [1] = assay: radiotelemetry heart rate and blood pressure after single oral dose; format: in vivo, rat
# Method: To identify equi-efficacious doses of GSK2181236A and BAY 60-4552, heart rate and blood pressure were monitored in male Sprague Dawley (SD) rats (∼500g, n = 4–6 per group) via surgically implanted radiotelemetry transmitters (PhysioTel PA-C40, Data Sciences International, St. Paul, MN, USA). Following oral gavage dosing (0.03–3.0 mg/kg), hemodynamic data were recorded every 5 min for 10 s and then averaged every hour.
# Sprague Dawley rats [2] = assay: myocardial ischemia/reperfusion injury; format: in vivo, rat; details: for circulating levels of cardiac troponin I (cTnI) / infarct size as a percentage of the area at risk: acute p.o. 2 h prior to ischemia, GSK2181236A 0.1 and 1.0 mg/kg, BAY 60-4552 0.3 and 3 mg/kg, 24 h reperfusion
# Method: This study was performed at CV Dynamics, Inc. (Newark, NJ, USA). Male SD rats were obtained from Charles River Laboratories, Inc. (Kingston, NY, USA). At 2 months of age, rats were pre-medicated with atropine (0.04 mg/kg IM) then anesthetized with a loading dose of pentobarbital sodium (65 mg/kg IP). A supplemental dose of pentobarbital sodium (16.3 mg/kg IP) was administered 30–40 min after the initial anesthesia. Marcaine (0.025–0.05 mg/rat IM) was administered locally for pain control, and anesthetized rats were subjected to a thoracotomy at the fourth intercostal space. The left descending coronary artery was occluded using a 5-0 silk snare for 30 min, followed by reperfusion for 24 h. The coronary occlusion and reperfusion were verified by visual inspection (color change of myocardium from pale to pink) and by EKG monitoring [ST elevation and widening of the QRS; Gould BioTACH ECG module (Valley View, OH, USA) with a Tektronix TDS 220 monitor (Beaverton, OR, USA)]. A 2% lidocaine solution (2–3 mg/kg) was dripped directly onto the heart as needed for arrhythmia control during ischemia, and procainamide (12.5 mg/kg IP) was administered 15 min prior to reperfusion.
# Rats were orally gavaged with vehicle (0.5% HPMC, 5% DMSO, and 0.1% Tween 80; 10 mL/kg; n = 14), GSK2181236A (0.1 or 1.0 mg/kg; n = 11–14), or BAY 60-4552 (0.3 or 3.0 mg/kg; n = 10–12) 2 h prior to ischemia. Blood was collected at the initiation of ischemia and after 24 h reperfusion. Plasma was obtained for analysis of compound concentrations and levels of cardiac Troponin I (cTnI), a circulating biomarker of cardiac injury. Plasma concentrations of cTnI were determined using a commercially available ELISA (catalog #2010-2-HSP, Life Diagnostics, West Chester, PA, USA) according to the manufacturer’s instructions. Plasma compound concentrations were determined by LC/MS/MS (API 5000 triple quadrupole mass spectrometer, ABSciex, Foster City, CA, USA; Prominence liquid chromatographic system, Shimadzu, Columbia, MD, USA). Rats were anesthetized with a mixture of ketamine and xylazine (35 and 5 mg/kg, IM) and euthanized via exsanguination. Hearts were excised and perfused with 1% Evans blue dye in saline then perfused-fixed with 10% neutral buffered formalin (∼90 mmHg perfusion pressure). Hearts were sliced on the short axis from apex to base at 1–2 mm intervals, and the ischemic area (area at risk) was evaluated using Image Pro-Plus (Media Cybernetics, Inc., Bethesda, MD, USA). Fresh heart slices were stained with 1% triphenyltetrazolium and evaluated using Image Pro-Plus for determination of infarct size.
# SHR-SP cardiac tissue = assay: cardiac gene expression in HSFD SHR-SP after chronic treatment; format: in vivo, rat
# Method: On week 8, isoflurane anesthetized rats were euthanized via exsanguination. The thoracic aorta was excised for assessment of endothelial function as described below. Hearts were snap-frozen in liquid nitrogen and stored at −80°C for later analysis of gene expression changes associated with cardiac hypertrophy and fibrosis (see below for procedure details).
# Cardiac gene expression was analyzed following chronic (7 week) BAY 60-4552 or GSK2181236A treatment in HSFD SHR-SP. Hearts were homogenized in Trizol and RNA was extracted using the RNeasy Plus Mini kit protocol (Qiagen, Valencia, CA, USA) with a 40 μL elution volume. RNA was quantified using a Nanodrop Spectrophotometer ND-1000 (Thermo Fisher Scientific, Wilmington, DE, USA) and converted to cDNA using the High Capacity cDNA Reverse Transcription Kit (Applied Biosystems, Carlsbad, CA, USA). Taqman assays were performed using a 384-well plate format with individual primer-probes and Taqman Universal PCR Master Mix (Applied Biosystems) and run on the 7900 HT Fast Real-Time PCR System (Applied Biosystems). SDS 2.3 software (Applied Biosystems) was used to obtain raw Ct values with manual threshold set at 0.10. Array Studio software (version 3.6.2; OmicSoft Corporation, Cary, NC, USA) was used to normalize gene expression data, by analysis of covariance, to the housekeeper genes β-2-microglobulin (B2m) and peptidyl-prolyl cis-trans isomerase A (Ppia). No outliers were detected by means of principal component analysis.
# The following genes were analyzed: α-skeletal actin (Acta1), type 1 collagen-alpha 1 (Col1a1), type 3 collagen-alpha 1 (Col3a1), connective tissue growth factor (CTGF; Ctgf), matrix metalloproteinase 2 (MMP2; Mmp2), matrix metalloproteinase 9 (MMP9; Mmp9), α-myosin heavy chain (α-MHC; Myh6), β-myosin heavy chain (β-MHC; Myh7); atrial natriuretic factor (ANF; Nppa), brain-type natriuretic peptide (BNP; Nppb), cGMP-specific phosphodiesterase 5A (PDE5A; Pde5a), type 2 cGMP-dependent protein kinase (PKG2; Prkg2), and transforming growth factor beta 1 (TGF-β1; Tgfb1).
# SHR-SP isolated aorta = assay: direct vasodilatory effects in aorta isolated from ND and HSFD SHR-SP; design: species or system rat; details: for EC50: read-out: EC50, direct vasodilation
# Method: In separate studies, endothelial function was assessed following chronic (7 week) BAY 60-4552 or GSK2181236A treatment in SHR-SP on HSFD. SHR-SP fed either normal or HSFD served as controls. Rats were anesthetized and thoracic aorta were isolated and treated with KCl and phenylephrine as described above. Cumulative concentration-response curves to phenylephrine were obtained by adding 0.5 log unit increments (1 nM to 3 μM). Following several washes with KHB, each vessel was contracted to equilibrium with 0.3 μM phenylephrine and tone was reversed by adding cumulative amounts of carbachol at 0.5 log unit intervals (10 nM to 30 μM). Following several KHB washes, the tissues were again contracted to equilibrium with 0.3 μM phenylephrine and tone was reversed by adding cumulative amounts of SNP at 0.5 log unit intervals (0.1 nM to 3 μM). In separate tissues from both the normal and HSFD SHR-SP control groups, the direct vasodilatory effects of BAY 60-4552 and GSK2181236A were investigated. Contractile tone induced by 0.3 μM phenylephrine was reversed by adding cumulative concentrations of BAY 60-4552 or GSK2181236A to the tissue baths at log increments (0.1 nM to 10 μM).
smiles,measurement,setting,value
COC(=O)Nc1c(N)nc(-c2nn(Cc3ccccc3F)c3ncccc23)nc1N [BAY 60-4552],"potency on heart rate and blood pressure, less potent than GSK2181236A","Sprague Dawley rats [1]; rat, in vivo",approximately threefold
same,highest no-effect dose on heart rate and blood pressure,Sprague Dawley rats [1]; single p.o. dose,0.3 mg/kg
same,mortality rate,"Sprague Dawley rats [2]; 0.3 mg/kg p.o., arrhythmia and trauma during occlusion",2 of 12
same,mortality rate,"Sprague Dawley rats [2]; 3 mg/kg p.o., cardiac puncture and trauma",2 of 14
same,circulating levels of cardiac troponin I (cTnI),Sprague Dawley rats [2],did not significantly alter
same,infarct size as a percentage of the area at risk,Sprague Dawley rats [2],did not significantly alter
same,attenuation of HSFD-induced increase of α-skeletal actin expression,"SHR-SP cardiac tissue; 0.3 mg/kg/day, 7 weeks",1.3 fold
same,attenuation of HSFD-induced increase of α-skeletal actin expression,"SHR-SP cardiac tissue; 3.0 mg/kg/day, 7 weeks",1.4 fold
same,attenuation of HSFD-induced increase of ANF expression,"SHR-SP cardiac tissue; 0.3 and 3.0 mg/kg/day, P > 0.05 vs. HSFD",non-significant trend
same,"Emax, direct vasodilation",SHR-SP isolated aorta; aorta from HSFD SHR-SP,111 ± 2 % vasodilation
same,EC50,SHR-SP isolated aorta; aorta from HSFD SHR-SP,54 ± 14 nM
same,"Emax, direct vasodilation",SHR-SP isolated aorta; aorta from ND SHR-SP,110 ± 2 % vasodilation
same,EC50,SHR-SP isolated aorta; aorta from ND SHR-SP,75 ± 16 nM
"Cc1cc(-c2ccc(OC(F)(F)F)cc2)ccc1COc1ccccc1-c1cccc(-n2ncc(C(=O)O)c2C(F)(F)F)n1 [GSK2181236A, 1-(6-{2-[({3-methyl-4′-[(trifluoromethyl)oxy]-4-biphenylyl}methyl)oxy]phenyl}-2-pyridinyl)-5-(trifluoromethyl)-1H-pyrazole-4-carboxylic acid]",lowering of mean arterial pressure (MAP),Sprague Dawley rats [1]; high dose,5–10 mmHg
same,"potency on heart rate and blood pressure, more potent than BAY 60-4552","Sprague Dawley rats [1]; rat, in vivo",~3 fold
same,doses that increased heart rate and reduced blood pressure,Sprague Dawley rats [1]; single p.o. dose,≥ 0.3 mg/kg
same,highest no-effect dose on heart rate and blood pressure,Sprague Dawley rats [1]; single p.o. dose,0.1 mg/kg
same,mortality rate,"Sprague Dawley rats [2]; 0.1 mg/kg p.o., due to anesthesia",1 of 15
same,mortality rate,"Sprague Dawley rats [2]; 1 mg/kg p.o., arrhythmia during occlusion and unknown cause during reperfusion",2 of 13
same,circulating levels of cardiac troponin I (cTnI),Sprague Dawley rats [2],did not significantly alter
same,infarct size as a percentage of the area at risk,Sprague Dawley rats [2],did not significantly alter
same,attenuation of HSFD-induced increase of ANF expression,"SHR-SP cardiac tissue; 1.0 mg/kg/day, 7 weeks",1.4 fold
same,attenuation of HSFD-induced increase of α-skeletal actin expression,"SHR-SP cardiac tissue; 1.0 mg/kg/day, 7 weeks",1.7 fold
same,EC50,"SHR-SP isolated aorta; Rattus norvegicus, aorta from HSFD SHR-SP",321 ± 168 nM
same,EC50,"SHR-SP isolated aorta; Rattus norvegicus, aorta from ND SHR-SP",270 ± 70 nM
same,"Emax, direct vasodilation",SHR-SP isolated aorta; aorta from HSFD SHR-SP,110 ± 7 % vasodilation
same,"Emax, direct vasodilation",SHR-SP isolated aorta; aorta from ND SHR-SP,110 ± 3 % vasodilation
